From US7538106B2, “Application of 2-cyano-10- (2-methyl-3- (methylamino)- propyl) phenothiazine or a pharmaceutically acceptable salt as medicament” (Aventis Pharmaceuticals Inc., priority 2003, dated 2009)
pIC50, pKi: −log10 of the molar value.

Tests used:
[1] = target: T1, 5-HT1A (h) (Homo sapiens, UniProt P08908); assay: Binding to membrane receptors of central neuromediators of human origin: 5-HT1A; conditions: 5-HT1A (h) receptor binding
T1 sequence (P08908 1-422): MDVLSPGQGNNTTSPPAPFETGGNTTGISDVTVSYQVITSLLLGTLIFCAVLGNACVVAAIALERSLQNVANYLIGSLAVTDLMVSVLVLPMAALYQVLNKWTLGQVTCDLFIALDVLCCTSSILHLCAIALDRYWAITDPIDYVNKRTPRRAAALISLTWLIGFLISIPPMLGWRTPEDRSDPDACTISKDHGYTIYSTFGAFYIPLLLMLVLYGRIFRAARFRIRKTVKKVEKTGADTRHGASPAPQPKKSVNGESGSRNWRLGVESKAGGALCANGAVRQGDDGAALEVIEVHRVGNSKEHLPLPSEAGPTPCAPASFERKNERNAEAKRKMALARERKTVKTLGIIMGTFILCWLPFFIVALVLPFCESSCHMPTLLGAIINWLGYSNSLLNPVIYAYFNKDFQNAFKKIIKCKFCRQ
Text: (§1) The results of this study of binding to these various membrane receptors of central neuromediators of human origin are presented in Table 1.

[2] = target: H1 (h) (Homo sapiens, UniProt P35367); assay: Binding to membrane receptors of central neuromediators of human origin: H1; conditions: H1 (h) receptor binding
Chain of H1 (h) (P35367 whole entry): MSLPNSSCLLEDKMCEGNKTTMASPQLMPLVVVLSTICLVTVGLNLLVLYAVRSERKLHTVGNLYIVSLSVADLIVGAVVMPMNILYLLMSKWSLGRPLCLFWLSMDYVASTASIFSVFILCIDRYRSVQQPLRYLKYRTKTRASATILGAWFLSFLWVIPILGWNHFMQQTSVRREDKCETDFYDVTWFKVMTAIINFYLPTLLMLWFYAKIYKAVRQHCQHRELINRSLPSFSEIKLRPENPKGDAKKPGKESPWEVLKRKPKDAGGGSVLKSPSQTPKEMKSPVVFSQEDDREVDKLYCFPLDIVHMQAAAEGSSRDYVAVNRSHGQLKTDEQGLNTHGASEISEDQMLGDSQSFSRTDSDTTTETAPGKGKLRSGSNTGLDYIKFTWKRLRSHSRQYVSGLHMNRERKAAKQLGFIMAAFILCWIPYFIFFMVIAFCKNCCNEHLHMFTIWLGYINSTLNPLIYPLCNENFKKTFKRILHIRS
Text: as §1

[3] = target: 5-HT2c (h) (Homo sapiens, UniProt P28335); assay: Binding to membrane receptors of central neuromediators of human origin: 5-HT2c
Chain of 5-HT2c (h) (P28335 33-458): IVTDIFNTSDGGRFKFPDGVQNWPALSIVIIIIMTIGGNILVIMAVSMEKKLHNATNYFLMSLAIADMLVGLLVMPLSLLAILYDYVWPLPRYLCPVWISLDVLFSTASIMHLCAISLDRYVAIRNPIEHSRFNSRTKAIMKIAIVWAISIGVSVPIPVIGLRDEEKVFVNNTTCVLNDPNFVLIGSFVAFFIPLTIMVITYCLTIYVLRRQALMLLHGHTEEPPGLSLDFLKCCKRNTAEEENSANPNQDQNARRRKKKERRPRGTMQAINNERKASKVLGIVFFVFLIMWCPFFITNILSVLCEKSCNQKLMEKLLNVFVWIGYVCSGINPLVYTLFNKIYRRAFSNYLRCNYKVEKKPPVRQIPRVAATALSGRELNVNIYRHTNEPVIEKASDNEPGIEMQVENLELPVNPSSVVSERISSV

[4] = tested on: mice; assay: Actimetry test (sedative activity, spontaneous motor activity); format: in vivo; conditions: spontaneous motor activity recorded for 10 minutes
Method: The sedative activity of the product was determined with mice according to an actimetry test. The actimeter is a device composed of 6 transparent cages in which the animals are individually placed. Photoelectric cells make it possible to detect movements in the cages (by cutting the beam). The spontaneous motor activity is recorded for 10 minutes. The results are expressed in the mean form and in the form of percentage of activity with respect to the control batch. The results are expressed in Table 2.

[5] = target: M3 (h) (Homo sapiens, UniProt P20309); assay: Binding to membrane receptors of central neuromediators of human origin: M3; conditions: M3 (h) receptor binding
Chain of M3 (h) (P20309 whole entry): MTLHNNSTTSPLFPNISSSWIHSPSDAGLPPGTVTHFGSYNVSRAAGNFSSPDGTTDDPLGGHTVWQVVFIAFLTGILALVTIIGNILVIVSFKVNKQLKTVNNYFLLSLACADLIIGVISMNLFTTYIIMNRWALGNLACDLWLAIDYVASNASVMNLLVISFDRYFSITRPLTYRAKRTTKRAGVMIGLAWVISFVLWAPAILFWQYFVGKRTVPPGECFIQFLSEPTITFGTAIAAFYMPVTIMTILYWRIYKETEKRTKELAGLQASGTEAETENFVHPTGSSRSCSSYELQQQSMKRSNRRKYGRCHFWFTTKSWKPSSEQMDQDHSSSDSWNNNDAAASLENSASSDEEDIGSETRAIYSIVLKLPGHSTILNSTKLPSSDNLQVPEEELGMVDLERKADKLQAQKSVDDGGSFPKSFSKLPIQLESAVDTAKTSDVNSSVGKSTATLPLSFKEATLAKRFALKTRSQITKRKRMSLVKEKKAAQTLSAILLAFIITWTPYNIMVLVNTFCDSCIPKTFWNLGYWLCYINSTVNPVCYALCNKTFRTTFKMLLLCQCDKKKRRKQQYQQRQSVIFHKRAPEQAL
Text: as §1

[6] = target: 5-HT2A (h) (Homo sapiens, UniProt P28223); assay: Binding to membrane receptors of central neuromediators of human origin: 5-HT2A; conditions: 5-HT2A (h) receptor binding
Chain of 5-HT2A (h) (P28223 whole entry): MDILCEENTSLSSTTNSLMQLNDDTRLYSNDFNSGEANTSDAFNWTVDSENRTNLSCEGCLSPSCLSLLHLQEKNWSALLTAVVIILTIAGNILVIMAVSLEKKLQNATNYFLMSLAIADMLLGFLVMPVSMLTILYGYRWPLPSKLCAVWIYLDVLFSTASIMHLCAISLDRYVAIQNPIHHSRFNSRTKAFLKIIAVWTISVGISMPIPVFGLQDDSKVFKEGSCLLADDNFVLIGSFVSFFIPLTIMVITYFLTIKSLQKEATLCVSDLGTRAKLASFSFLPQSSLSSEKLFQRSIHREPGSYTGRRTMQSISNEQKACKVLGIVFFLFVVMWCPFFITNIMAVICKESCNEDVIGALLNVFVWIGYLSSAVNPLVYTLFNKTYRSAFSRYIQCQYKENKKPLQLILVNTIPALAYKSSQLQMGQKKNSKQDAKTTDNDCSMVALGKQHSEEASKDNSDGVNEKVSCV

[7] = target: T2, M2 (h) (Homo sapiens, UniProt P08172); assay: Binding to membrane receptors of central neuromediators of human origin: M2; conditions: M2 (h) receptor binding
T2 sequence (P08172 1-466): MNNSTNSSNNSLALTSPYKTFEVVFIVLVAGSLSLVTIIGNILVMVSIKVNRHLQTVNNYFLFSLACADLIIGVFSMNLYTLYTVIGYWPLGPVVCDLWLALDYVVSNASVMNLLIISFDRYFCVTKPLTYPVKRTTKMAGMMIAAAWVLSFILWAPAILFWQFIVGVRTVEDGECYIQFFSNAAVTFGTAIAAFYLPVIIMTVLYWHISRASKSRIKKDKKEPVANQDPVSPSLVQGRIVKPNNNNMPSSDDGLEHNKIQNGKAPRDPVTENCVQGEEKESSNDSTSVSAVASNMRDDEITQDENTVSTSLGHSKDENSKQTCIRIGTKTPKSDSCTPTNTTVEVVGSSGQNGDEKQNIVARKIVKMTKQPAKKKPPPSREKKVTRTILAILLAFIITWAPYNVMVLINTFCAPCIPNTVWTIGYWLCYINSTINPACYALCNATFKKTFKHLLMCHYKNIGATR
Text: as §1

[8] = target: T3, M1 (h) (Homo sapiens, UniProt P11229); assay: Binding to membrane receptors of central neuromediators of human origin: M1; conditions: M1 (h) receptor binding
T3 sequence (P11229 1-460): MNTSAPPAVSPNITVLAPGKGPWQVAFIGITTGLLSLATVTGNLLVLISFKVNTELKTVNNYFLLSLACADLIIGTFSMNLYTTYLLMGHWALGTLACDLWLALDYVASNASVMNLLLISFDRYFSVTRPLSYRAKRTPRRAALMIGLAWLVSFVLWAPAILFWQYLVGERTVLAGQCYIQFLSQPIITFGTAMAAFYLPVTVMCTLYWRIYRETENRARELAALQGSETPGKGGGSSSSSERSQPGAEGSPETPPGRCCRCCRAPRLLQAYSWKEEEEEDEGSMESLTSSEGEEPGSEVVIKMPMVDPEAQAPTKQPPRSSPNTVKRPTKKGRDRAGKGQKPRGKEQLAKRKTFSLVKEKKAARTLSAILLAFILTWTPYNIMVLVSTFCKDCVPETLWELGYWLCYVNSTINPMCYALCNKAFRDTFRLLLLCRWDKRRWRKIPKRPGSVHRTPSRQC
Text: as §1

[9] = target: D2 (h) (Homo sapiens, UniProt P14416); assay: Binding to membrane receptors of central neuromediators of human origin: D2; conditions: D2 (h) receptor binding
Chain of D2 (h) (P14416 whole entry): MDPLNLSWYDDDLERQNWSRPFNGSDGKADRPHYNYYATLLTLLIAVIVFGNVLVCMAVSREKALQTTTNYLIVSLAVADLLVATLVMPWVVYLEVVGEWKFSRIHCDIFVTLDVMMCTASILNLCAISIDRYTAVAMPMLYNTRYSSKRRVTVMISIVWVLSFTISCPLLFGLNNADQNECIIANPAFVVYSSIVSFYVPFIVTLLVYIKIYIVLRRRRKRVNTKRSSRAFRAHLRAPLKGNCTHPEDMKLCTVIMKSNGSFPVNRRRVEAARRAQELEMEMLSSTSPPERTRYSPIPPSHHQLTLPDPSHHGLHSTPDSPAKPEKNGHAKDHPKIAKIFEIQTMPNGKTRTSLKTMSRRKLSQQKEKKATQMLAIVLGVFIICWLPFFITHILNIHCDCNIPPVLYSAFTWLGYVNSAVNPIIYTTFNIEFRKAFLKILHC
Text: as §1

CNCC(C)CN1c2ccccc2Sc2ccc(C#N)cc21 (stereo not drawn) [2-cyano-10-(2-methyl-3-(methylamino)propyl)phenothiazine]
pIC50 [1]: 6.34 | pKi [1]: 6.74 | pIC50 [2]: 7.66 | pKi [2]: 8.03 | pIC50 ([3]; 5-HT2c (h) receptor binding): 7.64 | pKi ([3]; 5-HT2c (h) receptor binding): 8.07 | affinity for 5-HT2c receptors ([3]; in words): high affinity | % of activity/control ([4]; dose 0.75 mg/kg): 61% | % of activity/control ([4]; dose 1 mg/kg): 63% | % of activity/control ([4]; dose 2 mg/kg): 26% | % of activity/control ([4]; dose 4 mg/kg): 9% | pIC50 [5]: 5.26 | pKi [5]: 5.41 | pIC50 [6]: 8.05 | pKi [6]: 8.82 | pIC50 [7]: 6.43 | pKi [7]: 6.60 | pIC50 [8]: 7.68 | pKi [8]: 7.77 | pIC50 [9]: 7.51 | pKi [9]: 7.92
